Test results from PubChem BioAssay AID256 (DTP/NCI, 2004).
Values joined by “and” are separate entries in the source; they are usually repeats but may differ in a detail not shown here. Equal entries are not always repeated. Toxic doses and inconclusive results are not listed.

System: CD2F1 mice, L1210 leukemia ip, survival T/C
Assay: NCI In Vivo Anticancer Drug Screen. Data for tumor model L1210 Leukemia (intraperitoneal) in CD2F1 (CDF1) mice
Details: higher = longer survival
How it was run: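 Mice carrying a transplanted tumor received test compound or vehicle alone. The value is the measurement in the treated group divided by that in the vehicle-treated control group.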

[1] = endpoint: mean survival time, dose: 100.0 mg/kg/injection, schedule: Q01DX001 (ip), vehicle: saline with Tween-80
[2] = endpoint: mean survival time, dose: 200.0 mg/kg/injection, schedule: Q01DX001 (ip), vehicle: saline with Tween-80
[3] = endpoint: mean survival time, dose: 400.0 mg/kg/injection, schedule: Q01DX001 (ip), vehicle: saline with Tween-80
[4] = endpoint: mean survival time, dose: 25.0 mg/kg/injection, schedule: Q01DX009 (ip), vehicle: saline with Tween-80
[5] = endpoint: mean survival time, dose: 50.0 mg/kg/injection, schedule: Q01DX009 (ip), vehicle: saline with Tween-80
[6] = endpoint: mean survival time, dose: 25.0 mg/kg/injection, schedule: Q01DX001 (ip), vehicle: saline
[7] = endpoint: mean survival time, dose: 50.0 mg/kg/injection, schedule: Q01DX001 (ip), vehicle: saline
[8] = endpoint: mean survival time, dose: 100.0 mg/kg/injection, schedule: Q01DX009 (ip), vehicle: saline with Tween-80
[9] = endpoint: mean survival time, dose: 200.0 mg/kg/injection, schedule: Q01DX009 (ip), vehicle: saline with Tween-80

CN(CN1C(=O)CCC1=O)CN1C(=O)CCC1=O
T/C (endpoint: median survival time, dose: 50.0 mg/kg/injection, schedule: Q01DX005 (ip), vehicle: saline): 105 % of control
T/C (endpoint: median survival time, dose: 100.0 mg/kg/injection, schedule: Q01DX005 (ip), vehicle: saline): 113 % of control
T/C (endpoint: median survival time, dose: 200.0 mg/kg/injection, schedule: Q01DX005 (ip), vehicle: saline): 121 % of control
T/C (endpoint: median survival time, dose: 400.0 mg/kg/injection, schedule: Q01DX005 (ip), vehicle: saline): 121 % of control

CCCC(O)CNCc1ccc2c3c(cccc13)CC2 (stereo unspecified)
T/C (endpoint: mean survival time, dose: 25.0 mg/kg/injection, schedule: Q01DX001 (ip), vehicle: Klucel (hydroxypropylcellulose) (HPC)): 93 % of control
T/C (endpoint: mean survival time, dose: 50.0 mg/kg/injection, schedule: Q01DX001 (ip), vehicle: Klucel (hydroxypropylcellulose) (HPC)): 101 % of control

COc1cc(-c2cc(OC)c(O)c(OC)c2)cc(OC)c1O
T/C [1]: 96 % of control
T/C [2]: 101 % of control
T/C [3]: 90 % of control

C/C(=C\Cl)CNC(C)C
T/C [4]: 101 % of control
T/C [5]: 100 % of control
T/C (endpoint: mean survival time, dose: 100.0 mg/kg/injection, schedule: Q01DX001 (ip), vehicle: acetone): 98 % of control

CC1(C[N+](C)(C)C)COC(C)(C)O1 (stereo unspecified)
T/C (endpoint: mean survival time, dose: 12.5 mg/kg/injection, schedule: Q04DX002 (ip), vehicle: saline): 95 % of control
T/C [6]: 98 % of control
T/C (endpoint: mean survival time, dose: 25.0 mg/kg/injection, schedule: Q04DX002 (ip), vehicle: saline): 95 % of control
T/C [7]: 96 % of control
T/C (endpoint: mean survival time, dose: 50.0 mg/kg/injection, schedule: Q04DX002 (ip), vehicle: saline): 106 % of control
T/C [1]: 94 % of control
T/C (endpoint: mean survival time, dose: 100.0 mg/kg/injection, schedule: Q01DX001 (ip), vehicle: saline): 103 % of control
T/C (endpoint: mean survival time, dose: 100.0 mg/kg/injection, schedule: Q04DX002 (ip), vehicle: saline): 95 % of control

Nc1nc(N)nc(C(=O)CCC(=O)O)n1
T/C [5]: 95 % of control
T/C [8]: 95 % of control
T/C [9]: 95 % of control

O=C1OC(=O)C2C(c3ccccc3)=C3C(=C(c4ccccc4)C12)c1cccc2cccc3c12 (stereo unspecified)
T/C (endpoint: mean survival time, dose: 100.0 mg/kg/injection, schedule: Q04DX002 (ip), vehicle: saline with Tween-80): 94 % of control
T/C (endpoint: mean survival time, dose: 200.0 mg/kg/injection, schedule: Q04DX002 (ip), vehicle: saline with Tween-80): 97 % of control
T/C (endpoint: mean survival time, dose: 400.0 mg/kg/injection, schedule: Q04DX002 (ip), vehicle: saline with Tween-80): 94 % of control

c1ccc(OCC2CO2)c(OCC2CO2)c1 (stereo unspecified)
T/C (endpoint: median survival time, dose: 25.0 mg/kg/injection, schedule: Q01DX009 (ip), vehicle: saline with Tween-80): 110 % of control and 111 % of control
T/C (endpoint: median survival time, dose: 50.0 mg/kg/injection, schedule: Q01DX009 (ip), vehicle: saline with Tween-80): 113 % of control and 117 % of control
T/C (endpoint: median survival time, dose: 200.0 mg/kg/injection, schedule: Q01DX009 (ip), vehicle: saline with Tween-80): 153 % of control and 168 % of control
T/C (endpoint: median survival time, dose: 400.0 mg/kg/injection, schedule: Q01DX009 (ip), vehicle: saline with Tween-80): 104 % of control

O=CC(NC(=O)N(CCCl)N=O)C(O)C(O)C(O)CO (stereo unspecified)
T/C (endpoint: mean survival time, dose: 0.94 mg/kg/injection, schedule: Q01DX009 (ip), vehicle: citric acid): 117 % of control
T/C (endpoint: mean survival time, dose: 1.88 mg/kg/injection, schedule: Q01DX009 (ip), vehicle: citric acid): 162 % of control
T/C (endpoint: mean survival time, dose: 3.75 mg/kg/injection, schedule: Q01DX009 (ip), vehicle: citric acid): 182 % of control and 242 % of control
T/C (endpoint: mean survival time, dose: 3.75 mg/kg/injection, schedule: Q01DX009 (ip), vehicle: saline): 186 % of control
T/C (endpoint: mean survival time, dose: 3.8 mg/kg/injection, schedule: Q01DX009 (ip), vehicle: water): 406 % of control
T/C (endpoint: mean survival time, dose: 5.0 mg/kg/injection, schedule: Q04DX002 (ip), vehicle: saline): 173 % of control and 250 % of control
T/C (endpoint: mean survival time, dose: 7.0 mg/kg/injection, schedule: Q01DX001 (ip), vehicle: saline): 115 % of control
T/C (endpoint: mean survival time, dose: 7.5 mg/kg/injection, schedule: Q01DX009 (ip), vehicle: citric acid): 97 % of control
T/C (endpoint: mean survival time, dose: 7.5 mg/kg/injection, schedule: Q01DX009 (ip), vehicle: saline): 223 % of control
T/C (endpoint: mean survival time, dose: 7.5 mg/kg/injection, schedule: Q01DX009 (ip), vehicle: water): 154 % of control
T/C (endpoint: mean survival time, dose: 8.0 mg/kg/injection, schedule: Q01DX001 (ip), vehicle: water): 267 % of control
T/C (endpoint: mean survival time, dose: 10.0 mg/kg/injection, schedule: Q04DX002 (ip), vehicle: saline): 276 % of control and 289 % of control
T/C (endpoint: mean survival time, dose: 11.0 mg/kg/injection, schedule: Q01DX001 (ip), vehicle: saline): 151 % of control and 160 % of control
T/C (endpoint: mean survival time, dose: 12.5 mg/kg/injection, schedule: Q01DX001 (ip), vehicle: saline): 158 % of control
T/C (endpoint: mean survival time, dose: 15.0 mg/kg/injection, schedule: Q01DX009 (ip), vehicle: saline): 120 % of control
T/C (endpoint: mean survival time, dose: 15.0 mg/kg/injection, schedule: Q01DX009 (ip), vehicle: water): 93 % of control
T/C (endpoint: mean survival time, dose: 16.0 mg/kg/injection, schedule: Q01DX001 (ip), vehicle: saline): 336 % of control [middle of 4 runs]
T/C (endpoint: mean survival time, dose: 16.0 mg/kg/injection, schedule: Q01DX001 (ip), vehicle: water): 369 % of control
T/C (endpoint: mean survival time, dose: 20.0 mg/kg/injection, schedule: Q01DX001 (ip), vehicle: saline): 688 % of control
T/C (endpoint: mean survival time, dose: 20.0 mg/kg/injection, schedule: Q04DX002 (ip), vehicle: saline): 331 % of control and 335 % of control
T/C [6]: 535 % of control
T/C (endpoint: mean survival time, dose: 28.0 mg/kg/injection, schedule: Q01DX001 (ip), vehicle: saline): 857 % of control
T/C (endpoint: mean survival time, dose: 32.0 mg/kg/injection, schedule: Q01DX001 (ip), vehicle: water): 372 % of control
T/C (endpoint: mean survival time, dose: 36.0 mg/kg/injection, schedule: Q01DX001 (ip), vehicle: saline): 603 % of control [middle of 4 runs]
T/C (endpoint: mean survival time, dose: 40.0 mg/kg/injection, schedule: Q04DX002 (ip), vehicle: saline): 92 % of control and 101 % of control
T/C [7]: 202 % of control
T/C (endpoint: mean survival time, dose: 54.0 mg/kg/injection, schedule: Q01DX001 (ip), vehicle: saline): 300 % of control and 548 % of control
T/C (endpoint: median survival time, dose: 15.0 mg/kg/injection, schedule: Q01DX001 (ip), vehicle: saline): 152 % of control
T/C (endpoint: median survival time, dose: 25.0 mg/kg/injection, schedule: Q01DX001 (ip), vehicle: saline): 181 % of control
T/C (endpoint: median survival time, dose: 42.0 mg/kg/injection, schedule: Q01DX001 (ip), vehicle: saline): 406 % of control

CCCCOC(=O)c1ccc2c(ccc[n+]2C)c1
T/C (endpoint: mean survival time, dose: 37.5 mg/kg/injection, schedule: Q01DX009 (ip), vehicle: saline with Tween-80): 97 % of control
T/C (endpoint: mean survival time, dose: 75.0 mg/kg/injection, schedule: Q01DX009 (ip), vehicle: saline with Tween-80): 103 % of control
T/C (endpoint: mean survival time, dose: 150.0 mg/kg/injection, schedule: Q01DX009 (ip), vehicle: saline with Tween-80): 107 % of control

CC(=O)OCC1OC(n2ncc3c(Nc4ccccc4)ncnc32)C(OC(C)=O)C1OC(C)=O (stereo unspecified)
T/C [4]: 93 % of control
T/C [5]: 100 % of control
T/C [8]: 87 % of control
T/C [9]: 100 % of control
T/C (endpoint: mean survival time, dose: 400.0 mg/kg/injection, schedule: Q01DX009 (ip), vehicle: saline with Tween-80): 100 % of control

CCOC(=O)c1ccc(N)cc1
T/C (endpoint: mean survival time, dose: 12.5 mg/kg/injection, schedule: Q01DX001 (ip), vehicle: saline with Tween-80): 106 % of control
T/C (endpoint: mean survival time, dose: 25.0 mg/kg/injection, schedule: Q01DX001 (ip), vehicle: saline with Tween-80): 100 % of control
T/C (endpoint: mean survival time, dose: 50.0 mg/kg/injection, schedule: Q01DX001 (ip), vehicle: saline with Tween-80): 100 % of control
T/C (endpoint: mean survival time, dose: 75.0 mg/kg/injection, schedule: Q01DX001 (ip), vehicle: other): 97 % of control
T/C (endpoint: mean survival time, dose: 75.0 mg/kg/injection, schedule: Q04DX003 (ip), vehicle: saline with Tween-80): 93 % of control
T/C (endpoint: mean survival time, dose: 150.0 mg/kg/injection, schedule: Q01DX001 (ip), vehicle: other): 103 % of control
T/C (endpoint: mean survival time, dose: 150.0 mg/kg/injection, schedule: Q04DX003 (ip), vehicle: saline with Tween-80): 100 % of control
T/C [2]: 226 % of control and 96 % of control
T/C [3]: 100 % of control and 103 % of control

O=c1n[n+]([O-])ccn1C1OC(CO)C(O)C1O (stereo unspecified)
T/C (endpoint: mean survival time, dose: 50.0 mg/kg/injection, schedule: Q01DX009 (ip), vehicle: saline): 107 % of control
T/C (endpoint: mean survival time, dose: 100.0 mg/kg/injection, schedule: Q01DX009 (ip), vehicle: saline): 120 % of control and 121 % of control
T/C (endpoint: mean survival time, dose: 300.0 mg/kg/injection, schedule: Q01DX009 (ip), vehicle: saline): 157 % of control and 173 % of control
T/C (endpoint: mean survival time, dose: 400.0 mg/kg/injection, schedule: Q01DX009 (ip), vehicle: saline): 150 % of control
T/C (endpoint: mean survival time, dose: 600.0 mg/kg/injection, schedule: Q01DX009 (ip), vehicle: saline): 91 % of control
T/C (endpoint: median survival time, dose: 200.0 mg/kg/injection, schedule: Q01DX009 (ip), vehicle: saline): 150 % of control
T/C (endpoint: median survival time, dose: 288.0 mg/kg/injection, schedule: Q01DX009 (ip), vehicle: saline): 161 % of control
T/C (endpoint: median survival time, dose: 300.0 mg/kg/injection, schedule: Q01DX009 (ip), vehicle: saline): 174 % of control
T/C (endpoint: median survival time, dose: 480.0 mg/kg/injection, schedule: Q01DX009 (ip), vehicle: saline): 180 % of control
